Our source for the Kd and IC50 values is patent US20250034173A1, “PYRIDO[4,3-D]PYRIMIDINE COMPOUNDS” (PFIZER INC., priority 2023, published 2025).

Where only a bound is given, the exact number is not on record here.

The target of one test is KRAS Wild Type (Homo sapiens (Human), UniProt P01116). As to the kind of experiment: SPR binding affinity and kinetics, GTPγS-loaded KRAS Wild Type. The following applies: GTPγS loaded protein, geomean. Summed up:
(§1)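 Surface plasmon resonance tracked compound dissociation for at least 3600 seconds, with no additional regeneration between cycles. Fit adequacy was judged from c2 values and randomness of the residue distribution.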

The target in the next test is KRAS G12D (Homo sapiens (Human), UniProt P01116, G12D). As to the kind of experiment: SPR binding affinity and kinetics, GTPγS-loaded KRAS G12D. The following applies: GTPγS loaded protein, geomean. In outline:
as §1
Background: SPR reads the build-up and loss of mass on a sensor chip optically.

Another test deals with KRAS G12C (Homo sapiens (Human), UniProt P01116, G12C). The test is described as follows: SPR binding affinity and kinetics, GTPγS-loaded KRAS G12C. The following applies: GTPγS loaded protein, geomean. In outline: as §1
The target in a further test is KRAS G12V (Homo sapiens (Human), UniProt P01116, G12V). As to the kind of experiment: SPR binding affinity and kinetics, GTPγS-loaded KRAS G12V. The following applies: GTPγS loaded protein, geomean. In outline:
as §1

For a further test, the target named is HRAS Wild Type (Homo sapiens (Human), UniProt P01112). As to the kind of experiment: SPR binding affinity and kinetics, GTPγS-loaded HRAS Wild Type. The following applies: GTPγS loaded protein, geomean. From the text:
(§2) No additional regeneration was used.
(§3) Compound dissociation was monitored for at least 3600 seconds. […] No additional regeneration was used.
(§4) The adequateness of the fit was judged by c2 values and the randomness of residue distribution.

The next test addresses NRAS Wild Type (Homo sapiens (Human), UniProt P01111). The test is described as follows: SPR binding affinity and kinetics, GTPγS-loaded NRAS Wild Type. The following applies: GTPγS loaded protein, geomean.
Text: as §2, §3, §4

Test [1] deals with H358 (non-small cell lung cancer cell line). The test is described as follows: KRAS Cell Titer Glo (CTG) cell proliferation assay, H358. Format: cell-based. The following applies: Homo sapiens, NCI-H358, 168 h; H358 cells, 7-day CTG, geomean IC50. Summed up:
(§5)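 Compounds pre-dispensed in 0.1% DMSO before seeding H358 (300 cells/well), SW620 (750) or PANC08.13 (600); 7-day exposure at 37 °C, 5% CO2. Viability by CellTiter-Glo luminescence after 15 min at room temperature. Percent effect normalised to DMSO (0%) and 1 uM trametinib (100%); geomean IC50.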
A general note: In ATP-based viability assays light output follows the ATP content of the culture.

Test [2] has as its system SW620 (colorectal cancer cell line). As to the kind of experiment: KRAS Cell Titer Glo (CTG) cell proliferation assay, SW620. Format: cell-based. The following applies: Homo sapiens, SW-620, 168 h; SW620 cells, 7-day CTG, geomean IC50. In outline:
as §5

Test [3] relates to PANC08.13 (pancreatic cancer cell line). The test is described as follows: KRAS Cell Titer Glo (CTG) cell proliferation assay, PANC08.13. Type of test: cell-based. The following applies: Homo sapiens, PANC-08-13, 168 h; PANC08.13 cells, 7-day CTG, geomean IC50. Summed up:
as §5

Consider `Fc1c(-c2c(C3CC3)c(Cl)cc3[nH]ncc23)nc2c3c(nc(OC[C@]45CCCN4CC4(CC4)C5)nc13)N1CCCOC[C@H]1CO2` [Example 19, (8aS)-2-{[(7′aR)-dihydro-1′H,3′H-spiro[cyclopropane-1,2′-pyrrolizin]-7′a(5′H)-yl]methoxy}-5-(6-chloro-5-cyclopropyl-1H-indazol-4-yl)-4-fluoro-8a,9,12,13-tetrahydro-8H,11H-7,10-dioxa-1,3,6,13a-tetraazanaphtho[1,8-ab]heptalene], for which the Kd (commonly the equilibrium constant for the complex coming apart) was 8 nM on KRAS Wild Type; 6 nM on KRAS G12D; 5 nM on KRAS G12C; 9 nM at KRAS G12V; > 10000 nM at HRAS Wild Type; > 10000 nM on NRAS Wild Type. The IC50 (commonly the point on the concentration scale where inhibition reaches its midpoint) in test [1] was found to be 62 nM; in test [2] it was 103 nM; in test [3], 3 nM.

In the case of `C=C1CN2CCC[C@@]2(COc2nc3c4c(nc(-c5c(C6CC6)c(Cl)cc6[nH]nc(Cl)c56)c(F)c4n2)OC[C@@H]2COCCCN32)C1` [Example 46, (8aS)-5-(3,6-dichloro-5-cyclopropyl-1H-indazol-4-yl)-4-fluoro-2-{[(7aS)-2-methylidenetetrahydro-1H-pyrrolizin-7a(5H)-yl]methoxy}-8a,9,12,13-tetrahydro-8H,11H-7,10-dioxa-1,3,6,13a-tetraazanaphtho[1,8-ab]heptalene], the Kd on KRAS Wild Type was 4 nM; at KRAS G12D, 3 nM; at KRAS G12C, 3 nM; at KRAS G12V, 4 nM; at HRAS Wild Type, > 10000 nM; on NRAS Wild Type, > 10000 nM. The 50% inhibitory concentration (IC50) amounted to 15 nM in [1], 45 nM in test [2] and 5 nM in test [3].

Regarding `C=C1CN2CCC[C@@]2(COc2nc3c4c(nc(-c5c(C6(C)CC6)c(Cl)cc6[nH]ncc56)c(F)c4n2)OC[C@@H]2COCCCN32)C1` [Example 39, (8aS)-5-[6-chloro-5-(1-methylcyclopropyl)-1H-indazol-4-yl]-4-fluoro-2-{[(7aS)-2-methylidenetetrahydro-1H-pyrrolizin-7a(5H)-yl]methoxy}-8a,9,12,13-tetrahydro-8H,11H-7,10-dioxa-1,3,6,13a-tetraazanaphtho[1,8-ab]heptalene], the Kd on KRAS Wild Type was 2 nM; at KRAS G12D, 1 nM; on KRAS G12C, 2 nM; at KRAS G12V it was 2 nM; on HRAS Wild Type, > 10000 nM; on NRAS Wild Type it was > 10000 nM. Also, the half-inhibitory concentration (IC50) in test [1] is 10 nM; in test [2] it was 7 nM; in test [3], < 1 nM.

Consider `C[C@@H]1CCCc2cc3[nH]ncc3c(-c3nc4c5c(nc(OC[C@@]67CCCN6C[C@H](F)C7)nc5c3F)N3CCCOC[C@H]3CO4)c21` [Example 36, (8aS)-4-fluoro-2-{[(2R,7aS)-2-fluorotetrahydro-1H-pyrrolizin-7a(5H)-yl]methoxy}-5-[(5R)-5-methyl-5,6,7,8-tetrahydro-1H-benzo[f]indazol-4-yl]-8a,9,12,13-tetrahydro-8H,11H-7,10-dioxa-1,3,6,13a-tetraazanaphtho[1,8-ab]heptalene], for which the Kd at KRAS Wild Type is 7 nM; at KRAS G12D it was 3 nM; at KRAS G12C it was 5 nM; at KRAS G12V it was 9 nM; at HRAS Wild Type, > 10000 nM; at NRAS Wild Type, > 10000 nM. The results for the IC50 in test [1], in test [2] and in [3] were 15 nM, 31 nM and 4 nM, respectively.

Consider `C/C=C1\CN2CCC[C@@]2(COc2nc3c4c(nc(-c5c(C6CC6)c(Cl)cc6[nH]ncc56)c(F)c4n2)OC[C@@H]2COCCCN32)C1` [Example 26, (8aS)-5-(6-chloro-5-cyclopropyl-1H-indazol-4-yl)-2-{[(2Z,7aS)-2-ethylidenetetrahydro-1H-pyrrolizin-7a(5H)-yl]methoxy}-4-fluoro-8a,9,12,13-tetrahydro-8H,11H-7,10-dioxa-1,3,6,13a-tetraazanaphtho[1,8-ab]heptalene], for which the dissociation constant Kd is 2 nM on KRAS Wild Type; 1 nM at KRAS G12D; 1 nM at KRAS G12C; 1 nM on KRAS G12V; > 10000 nM on HRAS Wild Type; > 10000 nM on NRAS Wild Type. Moreover, the IC50 in test [1] stood at 17 nM; in test [2], 16 nM; in [3] it was 2 nM.

Regarding `C[C@@H]1CCCc2cc3[nH]ncc3c(-c3nc4c5c(nc(OC[C@@]67CCCN6CC(=C6COC6)C7)nc5c3F)N3CCCOC[C@H]3CO4)c21` [Example 47, (8aS)-4-fluoro-5-[(5R)-5-methyl-5,6,7,8-tetrahydro-1H-benzo[f]indazol-4-yl]-2-{[(7aS)-2-(oxetan-3-ylidene)tetrahydro-1H-pyrrolizin-7a(5H)-yl]methoxy}-8a,9,12,13-tetrahydro-8H,11H-7,10-dioxa-1,3,6,13a-tetraazanaphtho[1,8-ab]heptalene], the Kd is 3 nM at KRAS Wild Type; 2 nM on KRAS G12D; 4 nM at KRAS G12C; 4 nM at KRAS G12V; > 10000 nM on HRAS Wild Type; > 10000 nM on NRAS Wild Type. Besides, the IC50 in [1] was found to be 14 nM; in test [2] it was 11 nM; in test [3] it was 10 nM.

`C=C1CN2CCC[C@@]2(COc2nc3c4c(nc(-c5c(C(C)C)c(Cl)cc6[nH]ncc56)c(F)c4n2)OC[C@@H]2COCCCN32)C1` [Example 24, (8aS)-5-[6-chloro-5-(propan-2-yl)-1H-indazol-4-yl]-4-fluoro-2-{[(7aS)-2-methylidenetetrahydro-1H-pyrrolizin-7a(5H)-yl]methoxy}-8a,9,12,13-tetrahydro-8H,11H-7,10-dioxa-1,3,6,13a-tetraazanaphtho[1,8-ab]heptalene]: the Kd at KRAS Wild Type was 7 nM; on KRAS G12D, 5 nM; on KRAS G12C, 4 nM; at KRAS G12V, 5 nM; on HRAS Wild Type, > 10000 nM; at NRAS Wild Type it was > 10000 nM. In addition, the half-inhibitory concentration (IC50) in test [1] came to 45 nM; in [2], 18 nM; in [3], 6 nM.

For `C=C1CN2CCC[C@@]2(COc2nc3c4c(nc(-c5c6c(cc7[nH]nc(Cl)c57)CCC[C@H]6C)c(F)c4n2)OC[C@@H]2COCCCN32)C1` [Example 62, (8aS)-5-[(5R)-3-chloro-5-methyl-5,6,7,8-tetrahydro-1H-benzo[f]indazol-4-yl]-4-fluoro-2-{[(7aS)-2-methylidenetetrahydro-1H-pyrrolizin-7a(5H)-yl]methoxy}-8a,9,12,13-tetrahydro-8H,11H-7,10-dioxa-1,3,6,13a-tetraazanaphtho[1,8-ab]heptalene], the Kd at KRAS Wild Type was < 1 nM; at KRAS G12D it was < 1 nM; at KRAS G12C, < 1 nM; on KRAS G12V, < 1 nM; at HRAS Wild Type it was > 10000 nM; at NRAS Wild Type it was > 10000 nM.

Take `COC/C=C1\CN2CCC[C@@]2(COc2nc3c4c(nc(-c5c6c(cc7[nH]ncc57)CCC[C@H]6OC)c(F)c4n2)OC[C@@H]2COCCCN32)C1` (single isomer, unassigned) [Example 58, (8aS)-4-fluoro-2-{[(2Z,7aS)-2-(2-methoxyethylidene)tetrahydro-1H-pyrrolizin-7a(5H)-yl]methoxy}-5-[(5R*)-5-methoxy-5,6,7,8-tetrahydro-1H-benzo[f]indazol-4-yl]-8a,9,12,13-tetrahydro-8H,11H-7,10-dioxa-1,3,6,13a-tetraazanaphtho[1,8-ab]heptalene]: the Kd was 61 nM at KRAS Wild Type; 74 nM at KRAS G12D; 42 nM on KRAS G12C; 81 nM at KRAS G12V; > 10000 nM at HRAS Wild Type; > 10000 nM on NRAS Wild Type.

Take “(1Z)-1-[(7aS)-7a-({[(8aS)-5-(6-chloro-5-cyclopropyl-1H-indazol-4-yl)-4-fluoro-8a,9,12,13-tetrahydro-8H,11H-7,10-dioxa-1,3,6,13a-tetraazanaphtho[1,8-ab]heptalen-2-yl]oxy}methyl)tetrahydro-1H-pyrrolizin-2(3H)-ylidene]propan-2-ol [Example 60]”: the Kd on KRAS Wild Type is 25 nM; on KRAS G12D, 11 nM; at KRAS G12C it was 26 nM; at KRAS G12V, 18 nM; on HRAS Wild Type, > 10000 nM; at NRAS Wild Type, > 10000 nM.

For `C=C1CN2CCC[C@@]2(COc2nc3c4c(nc(-c5c(C6CC6)c(Cl)cc6[nH]ncc56)c(F)c4n2)OC[C@@H]2COCCN32)C1` [Example 22, (8aS)-5-(6-chloro-5-cyclopropyl-1H-indazol-4-yl)-4-fluoro-2-{[(7aS)-2-methylidenetetrahydro-1H-pyrrolizin-7a(5H)-yl]methoxy}-8a,9,11,12-tetrahydro-8H-7,10-dioxa-1,3,6,12a-tetraazabenzo[4,5]cyclohepta[1,2,3-de]naphthalene], the Kd on KRAS G12D was 250 nM; on HRAS Wild Type it was > 10000 nM; on NRAS Wild Type, > 10000 nM. Further, the IC50 stood at 636 nM in test [1], 839 nM in test [2] and 98 nM in test [3].
